Assay results: PubChem BioAssay (NCI)
Values joined by “and” are separate entries in the source; they are usually repeats but may differ in a detail not shown here. Identical values can stand only once.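 In this assay, cells in 96-well plates receive the compound at five concentrations for 48 hours. Endpoints are linearly interpolated between the surrounding concentrations. Abbreviation: GI50, concentration required for 50% inhibition of growth. TGI: concentration producing complete growth inhibition.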

How the values were obtained:
Assay in all cases: inhibition of tumour cell growth, NCI panel, 48 h
786-0 renal = system: 786-0 renal
A498 renal = system: A498 renal
A549 NSCLC = system: A549 NSCLC
ACHN renal = system: ACHN renal
BT-549 breast = system: BT-549 breast
CAKI-1 renal = system: CAKI-1 renal
CCRF-CEM leukemia = system: CCRF-CEM leukemia
COLO 205 colon = system: COLO 205 colon
DU-145 prostate = system: DU-145 prostate
EKVX NSCLC = system: EKVX NSCLC
HCC-2998 colon = system: HCC-2998 colon
HCT-116 colon = system: HCT-116 colon
HCT-15 colon = system: HCT-15 colon
HL-60(TB) leukemia = system: HL-60(TB) leukemia
HOP-62 NSCLC = system: HOP-62 NSCLC
HOP-92 NSCLC = system: HOP-92 NSCLC
HS 578T breast = system: HS 578T breast
HT29 colon = system: HT29 colon
IGROV1 ovarian = system: IGROV1 ovarian
K-562 leukemia = system: K-562 leukemia
KM12 colon = system: KM12 colon
LOX IMVI melanoma = system: LOX IMVI melanoma
M14 melanoma = system: M14 melanoma
MALME-3M melanoma = system: MALME-3M melanoma
MCF7 breast = system: MCF7 breast
MDA-MB-231 breast = system: MDA-MB-231 breast
MDA-MB-435 = system: MDA-MB-435
MOLT-4 leukemia = system: MOLT-4 leukemia
NCI-H226 lung = system: NCI-H226 lung
NCI-H23 lung = system: NCI-H23 lung
NCI-H460 lung = system: NCI-H460 lung
NCI-H522 lung = system: NCI-H522 lung
NCI/ADR-RES ovarian = system: NCI/ADR-RES ovarian
OVCAR-3 ovarian = system: OVCAR-3 ovarian
OVCAR-4 ovarian = system: OVCAR-4 ovarian
OVCAR-5 ovarian = system: OVCAR-5 ovarian
OVCAR-8 ovarian = system: OVCAR-8 ovarian
PC-3 prostate = system: PC-3 prostate
RPMI-8226 leukemia = system: RPMI-8226 leukemia
RXF 393 renal = system: RXF 393 renal
SF-268 CNS = system: SF-268 CNS
SF-295 CNS = system: SF-295 CNS
SF-539 CNS = system: SF-539 CNS
SK-MEL-2 melanoma = system: SK-MEL-2 melanoma
SK-MEL-28 melanoma = system: SK-MEL-28 melanoma
SK-MEL-5 melanoma = system: SK-MEL-5 melanoma
SK-OV-3 ovarian = system: SK-OV-3 ovarian
SN12C renal = system: SN12C renal
SNB-19 CNS = system: SNB-19 CNS
SNB-75 CNS = system: SNB-75 CNS
SR leukemia = system: SR leukemia
SW-620 colon = system: SW-620 colon
T-47D breast = system: T-47D breast
TK-10 renal = system: TK-10 renal
U251 CNS = system: U251 CNS
UACC-257 melanoma = system: UACC-257 melanoma
UACC-62 melanoma = system: UACC-62 melanoma
UO-31 renal = system: UO-31 renal

## COc1cc(O)c2c(c1)/C=C/C[C@H](O)[C@H](O)C(=O)/C=C\C[C@H](C)OC2=O
786-0 renal
  GI50: 3.88 µM and 3.81 µM
  TGI: 8.49 µM and 15.8 µM
A498 renal
  GI50: 4.93 µM and 4.48 µM
  TGI: 32.3 µM and 67.7 µM
A549 NSCLC
  GI50: 4.77 µM and 34.8 µM
  TGI: 33.5 µM and > 100 µM
ACHN renal
  GI50: 0.877 µM and 1.74 µM
  TGI: 5.61 µM and 14.4 µM
BT-549 breast
  TGI: 3.28 µM and 13.1 µM
CAKI-1 renal
  GI50: 0.514 µM and 0.403 µM
  TGI: 6.31 µM and 12.7 µM
CCRF-CEM leukemia
  GI50: 1.01 µM and 2.42 µM
  TGI: 11.4 µM and 9.13 µM
COLO 205 colon
  GI50: 0.0614 µM and 0.194 µM
  TGI: 3.98 µM and 12 µM
DU-145 prostate
  GI50: 2.09 µM and 5.28 µM
  TGI: 13.8 µM and 18.6 µM
EKVX NSCLC
  GI50: 3.01 µM and 15.3 µM
  TGI: 10.7 µM and 52.2 µM
HCC-2998 colon
  GI50: 2.46 µM and 9.46 µM
  TGI: 7.09 µM and 23.3 µM
HCT-116 colon
  GI50: 0.515 µM and 0.601 µM
  TGI: 3.66 µM and 10 µM
HCT-15 colon
  GI50: 0.618 µM and 2.17 µM
  TGI: 4.64 µM and 12.4 µM
HL-60(TB) leukemia
  GI50: 0.218 µM and 0.205 µM
  TGI: 4.27 µM and 2.55 µM
HOP-62 NSCLC
  GI50: 4.14 µM and 14.5 µM
  TGI: 10.9 µM and 40.2 µM
HOP-92 NSCLC
  GI50: 0.165 µM and 0.223 µM
  TGI: 3.1 µM and 0.973 µM
HS 578T breast
  GI50: 3.91 µM and 2.72 µM
  TGI: 28.5 µM and 13.1 µM
HT29 colon
  GI50: 0.0462 µM and 0.0821 µM
  TGI: 4.35 µM and 10.3 µM
IGROV1 ovarian
  GI50: 3.74 µM and 2.64 µM
  TGI: 16.9 µM and 20.9 µM
K-562 leukemia
  GI50: 1.11 µM and 2.15 µM
  TGI: 27 µM and 12.3 µM
KM12 colon
  GI50: 1.54 µM and 5.53 µM
  TGI: 6.87 µM and 24.8 µM
LOX IMVI melanoma
  GI50: 0.477 µM and 1.04 µM
  TGI: 3.59 µM and 4.44 µM
M14 melanoma
  GI50: 0.022 µM and 0.05 µM
  TGI: 1.42 µM and 10.3 µM
MALME-3M melanoma
  GI50: 0.00579 µM and 0.0157 µM
  TGI: 0.0926 µM and 0.0572 µM
MCF7 breast
  GI50: 0.891 µM and 2.89 µM
  TGI: 4.13 µM and 10.9 µM
MDA-MB-231 breast
  TGI: 7.26 µM and 27 µM
MDA-MB-435
  GI50: 0.157 µM and 0.171 µM
  TGI: 6.56 µM and 2.55 µM
MOLT-4 leukemia
  GI50: 0.763 µM and 2.25 µM
  TGI: 3.75 µM and 8 µM
NCI-H226 lung
  GI50: 5.45 µM
  TGI: 33.5 µM
NCI-H23 lung
  GI50: 0.559 µM
  TGI: 4.56 µM
NCI-H460 lung
  GI50: 2.29 µM and 3.34 µM
  TGI: 33.5 µM and 17.2 µM
NCI-H522 lung
  GI50: 0.357 µM and 2.05 µM
  TGI: 4.01 µM and 12.7 µM
NCI/ADR-RES ovarian
  GI50: 1.92 µM and 4.11 µM
  TGI: 9.55 µM and 31.5 µM
OVCAR-3 ovarian
  GI50: 0.991 µM and 2.88 µM
  TGI: 7.27 µM and 14.2 µM
OVCAR-4 ovarian
  GI50: 3.55 µM and 2.52 µM
  TGI: 33.5 µM and 23.3 µM
OVCAR-5 ovarian
  GI50: 3.61 µM and 4.27 µM
  TGI: 10.3 µM and 22.6 µM
OVCAR-8 ovarian
  GI50: 1.44 µM and 2.87 µM
  TGI: 7.22 µM and 14.6 µM
PC-3 prostate
  GI50: 4.62 µM and 9.91 µM
  TGI: 15 µM and 28.7 µM
RPMI-8226 leukemia
  GI50: 0.815 µM and 1.59 µM
  TGI: 4.66 µM and 7.41 µM
RXF 393 renal
  GI50: 1.07 µM and 2.01 µM
  TGI: 5.7 µM and 7.21 µM
SF-268 CNS
  GI50: 4.7 µM and 12.8 µM
  TGI: 33.5 µM and 55.7 µM
SF-295 CNS
  GI50: 4.32 µM and 18.6 µM
  TGI: 11.1 µM and 45 µM
SF-539 CNS
  GI50: 1.92 µM and 3.12 µM
  TGI: 6.89 µM and 15.3 µM
SK-MEL-2 melanoma
  GI50: 2.61 µM and 2.81 µM
  TGI: 9.12 µM and 13.7 µM
SK-MEL-28 melanoma
  GI50: 0.0148 µM and 0.0458 µM
  TGI: 3.52 µM and 1.04 µM
SK-MEL-5 melanoma
  GI50: 0.331 µM and 2.69 µM
  TGI: 4.53 µM and 14.4 µM
SK-OV-3 ovarian
  GI50: 5.73 µM and 17.9 µM
  TGI: 21.6 µM and 80.3 µM
SN12C renal
  GI50: 1.35 µM and 4.12 µM
  TGI: 9.17 µM and 23.7 µM
SNB-19 CNS
  GI50: 5.71 µM and 14.9 µM
  TGI: 23.5 µM and 73.3 µM
SNB-75 CNS
  GI50: 5.72 µM and 3.57 µM
  TGI: 17 µM and 31 µM
SR leukemia
  GI50: 0.358 µM and 0.671 µM
  TGI: 5.94 µM and 6.49 µM
SW-620 colon
  GI50: 0.224 µM and 0.469 µM
  TGI: 8.33 µM and 10.3 µM
T-47D breast
  GI50: 1.18 µM and 2.66 µM
  TGI: 11.5 µM and 21.3 µM
TK-10 renal
  GI50: 1.86 µM and 5.29 µM
  TGI: 7.31 µM and 31.1 µM
U251 CNS
  GI50: 1.8 µM and 11.2 µM
  TGI: 6.99 µM and 23.5 µM
UACC-257 melanoma
  GI50: 0.0252 µM and 0.139 µM
  TGI: 1.74 µM and 1.27 µM
UACC-62 melanoma
  GI50: 0.0173 µM and 0.113 µM
  TGI: 2.89 µM and 9.52 µM
UO-31 renal
  GI50: 0.237 µM and 0.326 µM
  TGI: 5.42 µM and 11.9 µM
